The record followed here is patent publication US8415312B2, “Compound which is a nystatin derivative” (Biosergen AS, priority 2007, dated 2013).

Series [1] relates to Candida albicans ATCC 10231. Nature of the series: Antifungal susceptibility study (2), MIC50 by OD490 growth. The series is classed as cell-based. The following applies: 50% growth inhibition from regression curve, M19 medium without NaCl, 30° C. Here is the method:
The anti-fungal activity of several of the nystatin derivatives was further investigated. […] The anti-fungal activity of a number of the nystatin derivatives was therefore determined in a method which is designed to be more sensitive.
The test organism used for the further testing of polyene macrolide bioactivity was Candida albicans ATCC 10231, grown in 120 μl of standard M19 medium without NaCl (with an inoculum of 1000 cfu per well) and 30 μl of diluted polyene macrolide samples. The antibiotics were diluted in MeOH in series ensuring a spectrum of concentrations which yielded results ranging from complete growth inhibition to no inhibition of the test organism. The test organism cultures with antibiotic dilutions were incubated in 96-well microtiter plates at 30° C. without shaking, and growth was measured as OD490 after 12, 14 and 16 hours on a SpectraMax Plus microtiter plate reader. OD was plotted against antibiotic concentration, and MIC50 was estimated from the regression curve at 50% growth inhibition.

The next series concerns erythrocytes. Nature of the series: In vitro toxicity study, haemolysis (Tables 11 and 12). The series is classed as cell-based, horse. Here is the method:
The toxicity of various nystatin derivatives was tested at 2 and 5 μg/mL and at 25 μM.
Compounds were dissolved in DMSO at 5 mg/mL and 0.1 mL samples with different concentrations were prepared in DMSO. The samples were mixed with 0.9 mL PBS buffer containing 2.5% horse blood (PBS-HB; kept on ice) and incubated at 37° C. for 30 min without agitation.
Cells were pelleted by centrifugation at 5000 rpm for 5 min and haemolysis was evaluated by measuring OD545. 100% haemolysis was defined as the OD545 value obtained from a suspension of 2.5% horse blood in distilled water.

For series [2], the system named is Candida albicans ATCC 14053. Nature of the series: Antifungal susceptibility study (1), broth microdilution MIC. The series is classed as cell-based. Particulars: lowest concentration preventing any visible growth, read at 48 hours, 35° C., RPMI 1640 pH 7.0. The essentials: (§1)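 Broth microdilution in test medium at pH 7.0 with two-fold compound dilutions (DMSO stocks diluted 50-fold into medium), inoculated with freshly grown yeast cultures. Plates were incubated without agitation at 35° C. for C. albicans or 25° C. for C. humicolus. MIC was taken as the concentration with no visible growth, read at 48 hours.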
In general terms: In broth dilution the organism is exposed to a series of concentrations in liquid medium.

Series [3] concerns Cryptococcus humicolus ATCC 9949. The series is described as above. The series is classed as cell-based. Particulars: lowest concentration preventing any visible growth, read at 48 hours, 25° C., RPMI 1640 pH 7.0. The essentials:
as §1

Series [4] has as its system Aspergillus niger ATCC 16404. The series is described as above. The series is classed as cell-based. The following applies: lowest concentration preventing any visible growth, read at 48 hours, 35° C., RPMI 1640 pH 7.0. The essentials: (§2)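 Broth microdilution was run at pH 7.0 with compounds diluted from DMSO solutions and mixed 1:1 with conidial inoculum. Spore suspensions were adjusted to OD530 0.09-0.11 for A. niger or 0.15-0.17 for F. oxysporum, then diluted 1:50. Plates were incubated at 35° C without agitation, and MIC was read at 48 hours as absence of visible growth.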

Series [5] deals with Fusarium oxysporum VKM F-140. The description is as above. The series is classed as cell-based. The following applies: lowest concentration preventing any visible growth, read at 48 hours, 35° C., RPMI 1640 pH 7.0. The essentials:
as §2

Series [6] concerns yeasts and filamentous fungi (moulds). Kind of series: Antifungal susceptibility study (1), overall comparison across the test organisms. The series is classed as cell-based. The following applies: Table 5 MICs. Here is the method:
The organisms used for susceptibility testing were: Candida albicans ATCC 14053, Cryptococcus humicolus ATCC 9949, Aspergillus niger ATCC 16404 and Fusarium oxysporum VKM F-140 (=CMI, IMI 90473). Organisms were stored on potato dextrose agar […] 50% glycerol solution at -70° C. For short-term storage, stock cultures were stored on agar […] 4° C. The cultures of yeasts were sub-cultured onto Sabouraud dextrose (SAB) agar and incubated for 24 hours at 35° C. (Candida albicans) or for 48 hours at 25° C. (Cryptococcus humicolus) to obtain a freshly grown pure culture. The cultures of moulds were sub-cultured onto potato dextrose agar and incubated for 7 days at 35° C. […] (Fusarium oxysporum) to ensure maximum sporulation. Sterile 96-well flat-bottomed microtitration plates were used for testing. 100 μl of diluted inocula were dispensed into each microdilution well containing 100 μl of the double dilutions of compounds. Drug-free and yeast/mould-free controls were included. Microdilution trays were incubated at 35° C. (Candida albicans and moulds) or 25° C. (Cryptococcus humicolus) without agitation and observed for the presence or absence of visible growth. […] Minimal inhibitory concentrations (MICs) were read at 48 hours.

For series [7], the system named is mice (C57B1/6xDBA/2)F1 B6D2F1. Particulars: for LD50 / MTD: single injection into tail vein, probit analysis. Here is the method: (§3) Male mice of hybrids of first generation (C57B1/6xDBA/2)F1 B6D2F1, weight 20-22 g., received from the Central farm. “Kryukovo” of Russian Academies of Medical Science (RAMS) were used. Animals were maintained in a vivarium in plastic cages (with hardwood bedding in environmentally controlled conditions: 24±1° C., 12/12 hours light/dark cycle) on a standard diet of bricketed forages with easy access to drinking water (ad libitum). After a 2-week quarantine period, healthy animals were used in experimental work.
(§4) The solutions were prepared as follows: dry antibiotic substances (5 mg) were mixed with dry sodium deoxycholate (4.1 mg) in a sterile glass vial. 10 mL of phosphate buffer (NaH2PO4—1.59 g; Na2HPO4—0.96 g; H2O—to 100 mL) was added to the mix and the suspension was immediately subjected to vigorous shaking for 10 minutes until homogeneous suspensions were formed.
Preparations of amphotericin B and S44HP were also prepared in the same way.
The antibiotic preparations were singly injected into the mice's tail vein within 1-1.5 hours after the preparation of solutions. […] Each antibiotic was used in a range of doses resulting in 0% to 100% lethality and a minimum of 3 intermediate doses. Animals were randomized into groups, each containing 6 mice.

The test system of a further series is Candida albicans. Nature of the series: Neutropenic mouse model of disseminated candidosis. The series is classed as in vivo. As for the experimental part: Mice were rendered neutropenic by injection with cyclophosphamide monohydrate (Fluka, BioChemika, Sigma-Aldrich, Switzerland) intraperitoneally 2×100 mg/kg of body weight 1 day before infection.
The test system of series [8] is Candida albicans (strain 14053 ATCC). Nature of the series: In vivo antifungal activity, kidney burden in infected mice. The following applies: colonies per 1 g of kidney tissue, day 5, individual mice. As for the experimental part: as §3, §4
Animals were infected intravenously with Candida albicans culture at a dose of 1.0 million CFU/mouse (volume 0.1 mL). 30 minutes after infection, the antifungal agents were introduced intravenously into the mice at various doses in a volume of 0.2 mL (at a rate of 0.2 mL/30 second). Each dose was administered daily for four days including the day of infection (0, 1, 2 and 3 days).
As a control, there was a group of untreated mice (infected in the same way with Candida albicans). Also there was a “placebo” group of non-infected animals which were intravenously administered (in the same volume as antifungal agent preparations) 0.2 mL of solvent (phosphatic buffer +5% glucose (1:1)).
On the 5th day of experiment, mice were weighed and euthanized (killed) by a cervical dislocation. Then, in sterile conditions, the Candida albicans burden of each mouse was determined by counting of viable homogenates from the kidneys. The kidneys were removed aseptically and weighed, then pounded in porcelain mortars with sterile corundum. Dilutions of the resulting suspensions were prepared and sowed on Petri dishes with agar Saburo, incubated for 24 hours at a temperature of 35° C. Developed colonies of Candida albicans were then counted and their quantity calculated on the basis of 1 g of kidney tissue.

≈ marks a conversion by molar mass, not a printed value. Where “and” joins values, the source holds several entries; their conditions need not be identical. Equal values may be shown once.

`CCOC(=O)CNC(=O)C1C(O)CC2(O)CC(O)C(O)CCC(O)CC(O)CC(O)CC(=O)OC(C)C(C)C(O)C(C)C=CC=CC=CC=CC=CC=CC=CC(OC3OC(C)C(O)C(N)C3O)CC1O2` (centres unmarked) [Compound 9] gave an MIC50 in series [1] of 0.13 µg/mL (≈ 0.129 µM). The “Haemolysis of erythrocytes, Mean ± S.E.M.” value in the series on erythrocytes (25 μM (Table 12)) came to 18.4 ± 1.9%. Also, the Haemolysis of erythrocytes in the series with erythrocytes (25 μM, individual blood samples (Table 12)) was 18.0% and 16.7% and 22.4% and 25% and 16.2% and 12.2%. Besides, the “MIC Candida albicans ATCC 14053” value in series [2] was 1 µg/mL (≈ 0.991 µM). Besides, the “MIC Cryptococcus humicolus ATCC 9949” value in series [3] was 1 µg/mL (≈ 0.991 µM). Further, the “MIC Aspergillus niger ATCC 16404” value in series [4] came to 2 µg/mL (≈ 1.98 µM). Moreover, in series [5], the “MIC Fusarium oxysporum VKM F-140” value was 4 µg/mL (≈ 3.96 µM). In addition, the “anti-fungal activity compared with Amphotericin B and S44HP” value in [6] was “comparable anti-fungal activity to Amphotericin B and S44HP”.
As to `CC1C=CC=CC=CC=CC=CC=CC=CC(OC2OC(C)C(O)C(N)C2O)CC2OC(O)(CC(O)C(O)CCC(O)CC(O)CC(O)CC(=O)OC(C)C(C)C1O)CC(O)C2C(=O)NCCCO` (centres unmarked) [Compound 12], the MIC50 in [1] is 0.14 µg/mL (≈ 0.143 µM). In the series with erythrocytes (5 μg/mL (Table 11)), the “Haemolysis of erythrocytes, Mean ± SE” value came to 4.4 ± 0.3%. Moreover, the Haemolysis of erythrocytes with erythrocytes (5 μg/mL, individual blood samples # 1-3 (Table 11)) was 5% and 4.3% and 4.0%. Also, the “MIC Candida albicans ATCC 14053” value in series [2] came out at 1 µg/mL (≈ 1.02 µM). Also, the “MIC Cryptococcus humicolus ATCC 9949” value in series [3] came to 1 µg/mL (≈ 1.02 µM). The “MIC Aspergillus niger ATCC 16404” value in series [4] turned out to be 2 µg/mL (≈ 2.04 µM). In [5], the “MIC Fusarium oxysporum VKM F-140” value stood at 2 µg/mL (≈ 2.04 µM). For the same compound, in [6], the “anti-fungal activity compared with Amphotericin B and S44HP” value was “comparable anti-fungal activity to Amphotericin B and S44HP”.
Consider `CC1C=CC=CC=CC=CC=CC=CC=CC(OC2OC(C)C(O)C(N(CCCN)CCCN)C2O)CC2OC(O)(CC(O)C(O)CCC(O)CC(O)CC(O)CC(=O)OC(C)C(C)C1O)CC(O)C2C(=O)O` (centres unmarked) [Compound 22], for which the MIC50 in series [1] worked out at 0.07 µg/mL (≈ 0.0674 µM). Moreover, the “MIC Candida albicans ATCC 14053” value in series [2] worked out at 1 µg/mL (≈ 0.963 µM). Also, in series [3], the “MIC Cryptococcus humicolus ATCC 9949” value came to 1 µg/mL (≈ 0.963 µM). Also, the “MIC Aspergillus niger ATCC 16404” value in [4] amounted to 1 µg/mL (≈ 0.963 µM). Also, in series [5], the “MIC Fusarium oxysporum VKM F-140” value came out at 1 µg/mL (≈ 0.963 µM). Also, the “anti-fungal activity compared with Amphotericin B and S44HP” value in series [6] is “comparable anti-fungal activity to Amphotericin B and S44HP”.
With `CC1C=CC=CC=CC=CC=CC=CC=CC(OC2OC(C)C(O)C(N)C2O)CC2OC(O)(CC(O)CCCC(O)CC(O)CC(O)CC(=O)OC(C)C(C)C1O)CC(O)C2C.NC(CCC(=O)O)C(=O)O` (centres unmarked) [Compound 25], in [7], the “acute toxicity, times lower than amphotericin B” value is around 20 times; the LD50 amounted to 50.8 mg/kg; the MTD was 42.8 mg/kg. Moreover, the “activity compared with amphotericin B” value in the series with Candida albicans is reported as “less active than amphotericin B”.
As to `CC1C=CC=CC=CC=CC=CC=CC=CC(OC2OC(C)C(O)C(N)C2O)CC2OC(O)(CC(O)CC(O)CC(O)CC(O)CC(O)CC(=O)OC(C)C(C)C1O)CC(O)C2C.NC(CCC(=O)O)C(=O)O` (centres unmarked) [Compound 26], in series [7], the “acute toxicity, times lower than amphotericin B” value was around 20 times; the LD50 was 50.0 mg/kg; the MTD stood at 43.1 mg/kg. In addition, in the series with Candida albicans, the “activity compared with amphotericin B” value was “less active than amphotericin B”.
As for `C[C@@H]1[C@H](O)[C@@H](C)/C=C/C=C/C=C/C=C/C=C/C=C/C=C/[C@H](O[C@@H]2O[C@H](C)[C@@H](O)[C@H](N)[C@@H]2O)C[C@@H]2O[C@](O)(C[C@@H](O)[C@H](O)CC[C@@H](O)C[C@@H](O)C[C@@H](O)CC(=O)O[C@H]1C)C[C@H](O)[C@H]2C(=O)O` [Compound S44HP, reference compound], the MIC50 in series [1] was found to be 0.12 µg/mL (≈ 0.13 µM). The LD50 in [7] was 2.05 mg/kg. The MTD in series [7] worked out at 0.64 mg/kg. For the same compound, the “MIC Candida albicans ATCC 14053” value in series [2] turned out to be 1 µg/mL (≈ 1.08 µM). The “MIC Cryptococcus humicolus ATCC 9949” value in [3] turned out to be 1 µg/mL (≈ 1.08 µM). The “Number of Colonies” value was 2.7 × 10^4 and 8.0 × 10^4 and 8.2 × 10^4 in series [8] (0.08 mg/kg × 4/24 i.v.); 8.0 × 10^3 and 6.4 × 10^3 and 1.6 × 10^4 in [8] (0.15 mg/kg × 4/24 i.v.); 2.7 × 10^3 and 9.4 × 10^3 and 1.3 × 10^4 in series [8] (0.3 mg/kg × 4/24 i.v.); 2.5 × 10^3 and 8.8 × 10^3 and 1.2 × 10^3 in series [8] (0.6 mg/kg × 4/24 i.v.). In series [4], the “MIC Aspergillus niger ATCC 16404” value was found to be 1 µg/mL (≈ 1.08 µM). Moreover, in [5], the “MIC Fusarium oxysporum VKM F-140” value was 4 µg/mL (≈ 4.33 µM).

By MIC50 is commonly meant an inhibitory concentration at the 50% level, which refers to growth in some studies and to a panel of isolates in others. A word on the LD50: it is the dose expected to kill half of the subjects tested. A higher LD50 goes with lower toxicity.
